Assay results: the METLIN SMRT retention time set (Domingo-Almenara et al. 2019)

Test: gradient 5% acetonitrile 3 min, to 50% in 2 min, to 85% in 15 min, held 3 min, 100 µL/min
Details: column: Zorbax Extend-C18 2.1 x 50 mm; eluents: water / acetonitrile, 0.1% formic acid
In short: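 A Zorbax Extend-C18 column (2.1 × 50 mm, 1.8 μm) run at 100 μL/min with water and acetonitrile, both containing 0.1% formic acid, separated mixtures of ~100 pure standards. The HPLC was coupled to a quadrupole time-of-flight mass spectrometer operated in positive and negative ionization mode, with dead and dwell volumes of 40 μL and 900 μL. Each retention time was taken from a computationally picked adduct peak that was then manually inspected.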

RP-LC retention time [s]	Structure (SMILES)
698	O=C1NCCCCCN(C(=O)c2cccs2)[C@H]2CCC[C@@H]12
848	Cc1oc(C2CCN(C(=O)Cc3c(F)cccc3Cl)CC2)nc1C(=O)N1CCCC1
1010	COc1ccc(-n2nnc(-c3nsc(Nc4ccc(OC)c(Cl)c4)n3)c2C)cc1
634	Cc1cc(C)cc(NC(=O)CN2C(=O)CSc3ccc(C(=O)N4CCCC4)cc32)c1
642	Cn1nccc1C(=O)N1CCC(c2noc(-c3ccncc3)n2)C1 (stereo not drawn)
976	COc1ccc(-c2nc(-c3ccc4oc(C)nc4c3)no2)c(OC)c1
660	O=C(CSc1ccc(N2CCCC(C(=O)NC3CC3)C2)nn1)Nc1ccc(F)c(Cl)c1 (stereo not drawn)
792	O=C(NCC1CCCO1)N1CCCn2nc(-c3cccc(Cl)c3)cc2C1 (stereo not drawn)
1050	O=c1c2cc(-c3cccs3)nn2cnn1Cc1nc(-c2ccccc2Br)no1
981	CC(C)(C)NC(=O)CN1C(=O)C2CCCCN2c2ccc(S(=O)(=O)N3CCCCC3)cc21 (stereo not drawn)
692	Cc1ccc(CNC(=O)Cc2nnc(-c3ccccn3)o2)cc1
638	CC(C)(C)C(=O)N1CCC(OC2CCN(Cc3ccccc3)CC2)CC1
575	CCC(C)NC(=O)c1cc(NC(C)=O)cc2nc(C)ccc12 (stereo not drawn)
644	CN1C(=O)[C@H]2CN(Cc3ccc(Cl)cc3F)C[C@H]2C1=O
818	CN(CC1(C)CCOCC1)C(=O)Cc1ccccc1Cl
678	O=C(NCC1CN(c2ccc3c(c2)OCO3)C(=O)O1)c1cccs1 (stereo not drawn)
647	CCCC(=O)Nc1ccc2nc(N3CCN(c4cccc(OC)c4)CC3)cc(C(=O)O)c2c1
813	CCc1ccc(-c2cc3c(=O)n(Cc4noc(CN5CCOCC5)n4)ccn3n2)cc1
960	Cc1cccc(-n2c(=O)c3c(cc(C)n3C)n(CC(=O)Nc3ccc(C)c(Cl)c3)c2=O)c1
750	CC1CCN(c2cc(-n3cnc(C(=O)N4CCOCC4)c3)ncn2)CC1
1360	O=C(Nc1cccc(Cl)c1)c1c(O)c2cccnc2n(-c2cccc(F)c2)c1=O
963	O=C(Nc1cccc(Cl)c1)c1nnn(-c2ccc(F)cc2)c1-c1cccnc1

RP-LC retention time [s]	Structure (SMILES)
820	Cc1cc(C)c(C(=O)N2CCC(CC(=O)NCc3cccc(Br)c3)CC2)[nH]1
829	CCc1cc(C2CCCN2C(=O)Nc2ccc(OC)cc2OC)on1 (stereo not drawn)
720	CCCn1ccc2sc(C)c(C(=O)NC(C)C)c2c1=O
948	Cc1sc(-c2noc(C3CCC3)n2)cc1S(=O)(=O)N1CCC(C(=O)N2CCOCC2)CC1
625	O=C(CN1C(=O)C(C(=O)N2CCCC2)Sc2ccccc21)N1CCN(Cc2ccccc2)CC1 (stereo not drawn)
969	O=C(Nc1ccc(N2CCOCC2)cc1)C1CCCN(c2ncc(-c3cccc(F)c3)cn2)C1 (stereo not drawn)
868	CN1C(=O)C(c2c[nH]c3ccccc23)=C(c2c[nH]c3ccccc23)C1=O
872	COc1ccc(NC(=O)Cn2c(=O)n(-c3ccc(C)cc3)c3ncccc32)c(OC)c1
899	CCc1cccc(NC(=O)Cn2nc3cc(C)nc(-c4ccccc4)n3c2=O)c1
814	CC(C)CCNC(=O)C1(C)Cn2nc(C(=O)NCc3ccccc3Cl)cc2C(=O)N1C (stereo not drawn)
674	O=c1[nH]c2ccc(NCc3ccc(-c4ccccc4)cc3)cc2[nH]1
846	O=C(Nc1cccc(F)c1)C(=O)c1ccc[nH]1
843	CC1=C(c2ccc(Cl)cc2)S(=O)(=O)N=C1N1CCCN(C(=O)c2ccsc2)CC1
714	O=C(c1ccc(OCC2CCCN2C(=O)C2CC2)cc1)N1CCCC1 (stereo not drawn)
657	COc1nn(C)cc1C(=O)NCC(=O)N1CCc2ccccc2C1
638	Cn1nc(-c2ccncc2)nc1C1CN(S(=O)(=O)c2cc(F)ccc2F)C1
909	COC(=O)[C@H](Cc1ccc([N+](=O)[O-])cc1)NC(=O)c1cccc2ccccc12
935	CCOC(=O)c1c(S(=O)(=O)N2CCC(C(=O)Nc3ccc(F)c(Cl)c3)CC2)c(C)n(C)c1C
846	CCC(=O)N1CCc2cc(-c3ccc(C(=O)NC(C)C(=O)N4CCCCC4)cc3)ccc21 (stereo not drawn)
1020	COc1ccc(OC)c(CNC(=O)c2cc(-c3ccccc3)cn2C)c1
735	Cc1cc(C)cc(NC(=O)Cn2cc(-c3noc(-c4ccncc4)n3)nc2C)c1
857	CCCc1ccc(S(=O)(=O)N2CCC3(CC2)NCCCN=C3NC2CCCC2)cc1

RP-LC retention time [s]	Structure (SMILES)
1060	COc1cccc(-n2c(=O)c3sccc3n(Cc3nc(-c4ccc(Cl)c(F)c4)no3)c2=O)c1
1040	CC(C)Cn1cc(CCNS(=O)(=O)c2cc(Cl)ccc2Cl)c2cccnc21
719	CCCNC(=O)c1ccc2c(=O)n(Cc3ccccc3)c(N3CCCC3)nc2c1
693	Cn1nc(C(=O)N2CCCC(C(=O)NC3CC3)C2)c2c1CCN(C(=O)Cc1ccc(Cl)cc1)C2 (stereo not drawn)
955	O=C([C@@H]1C[C@H](F)CN1S(=O)(=O)c1ccc(Cl)s1)N1CCc2ccccc2C1
799	O=C(Nc1nccs1)C1CCN(C(=O)C2c3ccccc3Oc3ccccc32)CC1
646	COCCC1(NS(C)(=O)=O)CCN(C(=O)NCC(C)C)CC1
795	C[C@H]1CN(C(=O)Cc2ccccc2F)C[C@@H]1c1nc(-c2cccnc2)no1
603	Cc1ccc(C2CN(S(=O)(=O)c3ccccc3)CCN2C)cc1 (stereo not drawn)
964	CCNc1nc(N(CC)CC)nc(-n2cnc(SC)n2)n1
948	CC(C)(C)NC(=O)C(=O)c1c(-c2ccccc2)cc2ccccn12
886	COc1ccc(CNC(=O)Cc2csc3nc(-c4cccc(Br)c4)cn23)cc1
616	c1cc(-c2noc(C3CC3)n2)ccc1OC1CNC1
788	CCCn1cc(CCNC(=O)c2ccc(F)cc2Cl)c2cccnc21
1140	CC1CN(c2nc3ccccc3nc2C(C#N)C(=O)OCc2ccccc2)CC(C)O1 (stereo not drawn)
644	CN1C2CCC1CC(OC(=O)c1c[nH]c3ccccc13)C2 (stereo not drawn)
908	O=C(Cn1cccc1-c1nnc(C2CC2)o1)Nc1ccc(F)c(Cl)c1
887	CCCCS(=O)(=O)c1cc2c(cc1NC(=O)c1ccccc1)n(C)c(=O)n2C
716	O=S(=O)(c1cccc2c(Cl)cccc12)N1CCCNCC1
982	CCOc1ccc(N2CC(c3nc(-c4ccc5c(c4)OCO5)no3)CC2=O)cc1 (stereo not drawn)
848	CC(=O)c1cccc(NC(=O)c2cc(Cl)ccc2Cl)c1
956	O=C(Nc1cc(-c2ccccn2)no1)c1nccc2ccccc12

RP-LC retention time [s]	Structure (SMILES)
631	Cc1nn(-c2ccccc2)c(C)c1S(=O)(=O)N1CCC(C(=O)N2CCN(C)CC2)CC1
761	COC1CN(c2cccc(F)c2)C12CCN(Cc1cccc(F)c1)CC2 (stereo not drawn)
685	CCOc1ccc(NC(=O)NCC2CCOCC2)cc1
1180	CCn1nccc1-c1cccc(-c2noc(-c3ccc(Br)o3)n2)c1
677	Cc1cc(=O)n(CC(=O)Nc2ccc(F)c(Cl)c2)c(N2CCOCC2)n1
849	Cc1ccc(NS(=O)(=O)c2cc3c(s2)CCN(C(=O)C2CC2)C3)cc1
710	Oc1cccc(-c2nc3cnccn3c2Nc2ccccc2)c1
754	CC1(C(=O)NCc2ccccc2)Cn2cnc(C(=O)NCCc3ccccc3)c2C(=O)N1C1CC1 (stereo not drawn)
928	Cc1ccc(C)c(N2CCN(C(=O)c3[nH]c(C)c(S(=O)(=O)N4CCOCC4)c3C)CC2)c1
852	O=C(CCCc1ccccc1)N1CCN2CCS(=O)(=O)N(C3CC3)C(=O)C2C1 (stereo not drawn)
1180	Cc1ccc(Cl)cc1-n1ncc2c(=O)n(Cc3nc(-c4cccc(C(F)(F)F)c4)no3)cnc21
977	Cc1cccc(N2CCN(C(=O)C3CCCN(c4nc5ccccc5n5cccc45)C3)CC2)c1C (stereo not drawn)
711	Cc1nn(-c2cc(N3CCOCC3)ncn2)c(C)c1CCC(=O)NCc1ccco1
614	CC(C)CN1C(=O)c2cccn2CC1C(=O)NCCN(C)C1CCCCC1 (stereo not drawn)
806	CS(=O)(=O)Nc1ccc(C2(C(=O)NCc3ccco3)CCCCC2)cc1
716	CC(C)CNC(=O)C1CCN(c2cnc(N3CCCCCC3)nc2)CC1
695	CCCn1c(C)cnc1C1CN(S(=O)(=O)c2ccc(F)c(F)c2)C1
860	COc1ccc(Cc2nc3nccc(-c4cc(OC)c(OC)c(OC)c4)n3n2)cc1
1160	COc1ccc(Cl)cc1NC(=O)c1cc(C)n2nc(C)cc2n1

Structure (SMILES)	RP-LC retention time [s]
CCn1cc(C(=O)NCc2ccc3c(c2)OCO3)c2cccnc21	755
COc1ccc2c(c1)C1(CCN(C(=O)c3ccccc3OC)C1)C(=O)N2C (stereo not drawn)	725
O=C(C1CCN(c2ncccc2-c2nc(-c3cccc(F)c3)no2)CC1)N1CCC2(CC1)OCCO2	1010
